{
  "source": "patent US8808769B2",
  "about": "“Method for extraction of fractions containing pharmacologically active ingredients with less cytotoxicity from one or more plants” (Bioved Pharmaceuticals, Inc., priority 2009, dated 2014)",
  "system": "Pseudomonas aeruginosa (ATCC 9027)",
  "experiment": "agar well diffusion assay (antimicrobial activity)",
  "assay_type": "cell-based",
  "details": "ATCC9027, 100 μl of 100 mg/ml solution per well, 37° C., 24 hours of incubation, mean of three readings, read-out: zone of inhibition (diameter)",
  "from_the_text": "Pseudomonas aeruginosa (ATCC 9027) strain was used as test organisms. The culture media, Nutrient Agar (NA), Nutrient Broth (NB) and Czapek Yeast Extract Agar (CYA) used for the growth of microorganisms, were purchased from Hi-Media. All other chemicals, including organic solvents used for the extraction of the plant metabolites, were of analytical grade.\nThe AP Extract 2, SX Extract 2, OS Extract 2, AP Extract 1, SX Extract 1 and OS Extract 1 were separately dissolved in 100% aqueous dimethylsulfoxide (DMSO) to obtain a final concentration of 100 mg/ml for each extract. 100 mg/ml solution of Chloramphenicol was prepared and used as a Positive control. Antimicrobial activity of the above mentioned extracts was determined, using the agar well diffusion assay method (Perez et al., 1990). Approximately 20 ml of molten and cooled media (NA and CYA) were poured in sterilized Petri dishes. The plates were left overnight at room temperature to check for any contamination to appear. The test organism was grown in nutrient broth for 24 hours. […]\nAgar wells of 5 mm diameter were prepared with the help of a sterilized stainless steel cork borer. […] The antimicrobial activity of the extracts was taken on the basis of diameter of zone of inhibition, which was measured at cross-angles after 24 hours of incubation and the mean of three readings for each extract.",
  "data": [
    {"smiles": "O=C(N[C@H](CO)[C@H](O)c1ccc([N+](=O)[O-])cc1)C(Cl)Cl", "note": "[positive standard, Chloramphenicol]", "values": [
      {"measurement": "zone of inhibition at 100000 µg/mL", "value": 40, "unit": "mm"}
    ]}
  ]
}
